Results: article PMC2096561 (2004)

Molecular target: GPR80 (GPR99, proposed P2Y15) (Homo sapiens, UniProt Q96P68)
Assay: [3H]inositol phosphate accumulation in GPR80-expressing CHO and HEK293 cells
Format: cell-based

Sequence of GPR80 (GPR99, proposed P2Y15) (Q96P68 whole entry): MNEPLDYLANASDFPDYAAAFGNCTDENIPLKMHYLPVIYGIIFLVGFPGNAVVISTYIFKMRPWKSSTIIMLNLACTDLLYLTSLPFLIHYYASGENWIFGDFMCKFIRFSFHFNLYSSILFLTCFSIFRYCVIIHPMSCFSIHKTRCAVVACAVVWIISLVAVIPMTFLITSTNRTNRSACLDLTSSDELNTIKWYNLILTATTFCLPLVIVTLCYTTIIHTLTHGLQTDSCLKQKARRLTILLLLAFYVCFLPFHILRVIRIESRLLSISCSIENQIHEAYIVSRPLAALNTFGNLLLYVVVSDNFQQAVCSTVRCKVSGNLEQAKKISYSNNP

Q: `O=C(O)CCC(=O)C(=O)O` [α-ketoglutarate] was tested. Which EC50 did it give?
A: 140 ± 10 µM
